In US20060079696A1, “Substituted compounds derived from N-(benzyl)phenylacetamide, preparation and uses” (GENFIT, priority 2004, published 2006):

What was measured:
Assay type in all cases: cell-based
hPPARδ = biological target: T1, hPPARδ (Homo sapiens, UniProt Q03181); experiment: Gal4-hPPARδ chimera transactivation in COS-7 cells (luciferase); conditions: induction factor standardised to an internal reference, read-out: % hGal4-PPAR transactivation (10 μM) delta
T1 construct: fragments of DNA amplified by PCR corresponding to the DEF domains of the human PPARα, PPARγ PPARδ nuclear receptors; expressed in transfected cells; host or cells: COS-7 (monkey kidney fibroblast line)
T1 sequence (Q03181 211-439 limits assumed): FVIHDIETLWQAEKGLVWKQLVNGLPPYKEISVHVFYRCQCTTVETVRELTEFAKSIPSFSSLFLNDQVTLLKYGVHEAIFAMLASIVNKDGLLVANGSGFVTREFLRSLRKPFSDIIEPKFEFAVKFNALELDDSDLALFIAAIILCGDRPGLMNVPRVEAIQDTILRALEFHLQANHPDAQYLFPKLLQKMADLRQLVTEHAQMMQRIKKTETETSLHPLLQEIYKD
Procedure: (§1) The PPAR activation was evaluated in vitro on a monkey kidney fibroblast line (COS-7) by measuring the transcriptional activity of chimeras constituted of the DNA binding domain of the Gal4 transcription factor of yeast and of the binding domain to the ligand of the different PPARs. The compounds were tested at doses between 0.01 and 100 μM on Gal4-PPARα, γ, δ chimeras. The induction factor (ratio between the luminescence induced by the compound and the luminescence induced by the control) was measured for each condition: the higher this factor, the more the compound has PPAR-activating properties.
(§2) The COS-7 cells from ATCC were cultivated in a DMEM medium supplemented with 10% (vol/vol) of foetal calf serum, 100 U/ml penicillin (Gibco, Paisley, UK) and 2 mM L-Glutamine (Gibco, Paisley, UK). The cells were incubated at 37° C. in a humid atmosphere containing 5% CO2.
(§3) The Gal4(RE)_TkpGL3, pGal4-hPPARα, pGal4-hPPARγ, pGal4-hPPARδ and pGal4-φ plasmids have been described in the literature (Raspe, Madsen et al. 1999). The pGal4-hPPARα, pGal4-hPPARγ and pGal4-hPPARδ constructs were obtained by cloning in the pGal4-φ vector of fragments of DNA amplified by PCR corresponding to the DEF domains of the human PPARα, PPARγ PPARδ nuclear receptors.
(§4) COS-7 cells were plated in 96 wells plates (5×10^4 cells/well) and transfected, in the presence of 10% foetal calf serum and 150 ng DNA per well, with a pGal4-PPAR/Gal4(RE)_TkpGL3 ratio of 1/10. The cells were then incubated for 24 hours with the compounds to be tested, without serum. At the end of the experiment, the cells were lysed and the luciferase activities were determined by means of Steady Glow Luciferase (Promega) according to the supplier's recommendations.
(§5) The inventive compounds were tested at 10 μM on the 3 PPAR isoforms. The results obtained are detailed in table (1). The transactivation measured is expressed as a response ratio versus an internal reference for each of the isoforms.
(§6) The compounds were tested at 10 μM on the Gal4-PPARα, γ, δ chimeras. The induction factor, i.e. the ratio between the luminescence induced by the compound and the luminescence induced by the control, was measured for each condition. It was then standardised in comparison to an internal reference and the results were then expressed in percentages : the higher the activation percentage, the more the compound has PPAR-activating properties.

hPPARα = biological target: T2, hPPARα (Homo sapiens, UniProt Q07869); experiment: Gal4-hPPARα chimera transactivation in COS-7 cells (luciferase); conditions: induction factor standardised to an internal reference, read-out: % hGal4-PPAR transactivation (10 μM) alpha
T2 construct: fragments of DNA amplified by PCR corresponding to the DEF domains of the human PPARα, PPARγ PPARδ nuclear receptors; expressed in transfected cells; host or cells: COS-7 (monkey kidney fibroblast line)
T2 sequence (Q07869 239-466 limits assumed): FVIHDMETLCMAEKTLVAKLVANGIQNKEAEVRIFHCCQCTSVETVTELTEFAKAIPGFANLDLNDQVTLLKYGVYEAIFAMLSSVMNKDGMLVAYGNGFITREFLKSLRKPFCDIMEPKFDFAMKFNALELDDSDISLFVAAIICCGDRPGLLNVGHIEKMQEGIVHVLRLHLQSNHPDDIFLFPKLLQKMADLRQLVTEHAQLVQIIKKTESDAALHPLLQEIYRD
Procedure: as §1, §2, §3, §4, §5, §6

hPPARγ = biological target: T3, hPPARγ (Homo sapiens, UniProt P37231); experiment: Gal4-hPPARγ chimera transactivation in COS-7 cells (luciferase); conditions: induction factor standardised to an internal reference, read-out: % hGal4-PPAR transactivation (10 μM) gamma
T3 construct: fragments of DNA amplified by PCR corresponding to the DEF domains of the human PPARα, PPARγ PPARδ nuclear receptors; expressed in transfected cells; host or cells: COS-7 (monkey kidney fibroblast line)
T3 sequence (P37231 238-503 limits assumed): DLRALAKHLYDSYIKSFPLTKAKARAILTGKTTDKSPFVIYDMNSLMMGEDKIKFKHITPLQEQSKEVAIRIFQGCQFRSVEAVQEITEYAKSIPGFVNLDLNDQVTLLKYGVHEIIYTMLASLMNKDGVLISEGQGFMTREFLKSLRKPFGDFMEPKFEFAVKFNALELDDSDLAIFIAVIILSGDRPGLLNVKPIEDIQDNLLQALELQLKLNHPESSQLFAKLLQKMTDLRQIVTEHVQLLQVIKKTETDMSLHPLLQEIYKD
Procedure: as §1, §2, §3, §4, §5, §6

Compound | activation at 10 µM (hPPARδ) [%] | activation at 10 µM (hPPARα) [%] | activation at 10 µM (hPPARγ) [%]
CC(NC(=O)Cc1ccc(OC(C)(C)C(=O)O)cc1)c1ccccc1N1CCCCC1 (stereo not drawn) [Compound 2, 2-[4-[1-(1-(2-(1-piperidinyl)phenyl)ethyl)aminocarbonylmethyl]phenoxy]-2-methylpropanoic acid] | < 10 | < 10 | 27
CCCCCCC(NC(=O)Cc1ccc(OC(C)(C)C(=O)O)cc1)c1ccccc1N1CCCCC1 (stereo not drawn) [Compound 5, 2-[4-[1-(1-(2-(1-piperidinyl)phenyl)heptyl)aminocarbonylmethyl]phenoxy]-2-methylpropanoic acid] | < 10 | 31 | 82
Cc1cc(CC(=O)NC(CC(C)C)c2ccccc2N2CCCCC2)cc(C)c1OC(C)(C)C(=O)O (stereo not drawn) [Compound 11, 2-[2,6-dimethyl-4-[1-(3-methyl-1-(2-(1-piperidinyl)phenyl)butyl)aminocarbonylmethyl]phenoxy]-2-methylpropanoic acid] | < 10 | < 10 | 47
CC(NC(=O)Cc1ccc(OC(C)(C)C(=O)O)cc1)c1ccccc1N1CCCCCC1 (stereo not drawn) [Compound 15, 2-[4-[1-(1-(2-(1-hexamethyleneimino)phenyl)ethyl)aminocarbonylmethyl]phenoxy]-2-methylpropanoic acid] | < 10 | < 10 | 42
CCCCC(NC(=O)Cc1ccc(OC(C)(C)C(=O)O)cc1)c1ccc(-n2ccc3ccccc32)cc1N1CCCCC1 (stereo not drawn) [Compound 38, 2-[4-[1-(1-(2-(1-piperidinyl)-4-(1H-indolyl)phenyl)pentyl)aminocarbonylmethyl]phenoxy]-2-methylpropanoic acid] | 18 | 13 | < 10
CC(C)CC(NC(=O)Cc1ccc(OCCCCOc2ccc(OC(C)(C)C(=O)O)cc2)cc1)c1ccccc1N1CCCCC1 (stereo not drawn) [Compound 40, 2-{4-{4-[4-[1-(3-methyl-1-(2-(1-piperidinyl)phenyl)butyl)aminocarbonylmethyl]phenoxy]butoxy}phenoxy}-2-methylpropanoic acid] | < 10 | 20 | 55
CCCCC(NC(=O)Cc1ccc(OCC(C)(C)C(=O)O)cc1)c1ccccc1N1CCCCC1 (stereo not drawn) [Compound 42, 3-[4-[1-(1-(2-(1-piperidinyl)phenyl)pentyl)aminocarbonylmethyl]phenoxy]-2,2-dimethylpropanoic acid] | < 10 | 32 | < 10

Further lines, results first:

activation at 10 µM (hPPARδ) [%] | activation at 10 µM (hPPARα) [%] | activation at 10 µM (hPPARγ) [%] | Compound
< 10 | 27 | 18 | CCCCC(NC(=O)Cc1ccc(OC(C)(C)C(=O)O)cc1)c1ccccc1N1C[C@H](C)C[C@H](C)C1 (stereo partly drawn) [Compound 43, 2-[4-[1-(1-(2-((3S,5R)-3,5-dimethylpiperidine-1-yl)phenyl)pentyl)aminocarbonylmethyl]phenoxy]-2-methylpropanoic acid]
< 10 | 58 | 12 | CCN(CCCC(C)(C)C(=O)O)c1ccc(CC(=O)NC(CC(C)C)c2ccccc2N2CCCCC2)cc1 (stereo not drawn) [Compound 46, 5-{N-ethyl-N-[4-[1-(3-methyl-1-(2-(1-piperidinyl)phenyl)butyl)aminocarbonylmethyl]phenyl]amino}-2,2-dimethylpentanoic acid]
< 10 | 42 | < 10 | CCCCC(NC(=O)Cc1ccc(OCCCC(Cl)(Cl)C(=O)O)cc1)c1ccccc1N1CCCCC1 (stereo not drawn) [Compound 47, 5-[4-[1-(1-(2-(1-piperidinyl)phenyl)pentyl)aminocarbonylmethyl]phenoxy]-2,2-dichloropentanoic acid]
< 10 | < 10 | 17 | COc1ccc(CC(NC(=O)Cc2ccc(OC(C)(C)C(=O)O)cc2)c2ccccc2N2CCCCC2)cc1 (stereo not drawn) [Compound 48, 2-[4-[1-(2-(4-methoxyphenyl)-1-(2-(1-piperidinyl)phenyl)ethyl)aminocarbonylmethyl]phenoxy]-2-methylpropanoic acid]
11 | < 10 | < 10 | CCCCC(NC(=O)Cc1ccc(OC(C)(C)C(=O)O)cc1)c1ccc(CCc2ccccc2)cc1N1CCCCC1 (stereo not drawn) [Compound 50, 2-[4-[1-(1-(2-(1-piperidinyl)-4-(phenethyl)phenyl)pentyl)aminocarbonylmethyl]phenoxy]-2-methylpropanoic acid]
< 10 | 40 | < 10 | CCCC(NC(=O)Cc1ccc(OC(C)(C)C(=O)NS(C)(=O)=O)cc1)c1ccccc1N1CCCCC1 (stereo not drawn) [Compound 66, N-[methylsulfonyl]-2-[4-[1-(1-(2-(1-piperidinyl)phenyl)butyl)aminocarbonylmethyl]phenoxy]-2-methylpropanamide]
< 10 | < 10 | < 10 | CCCCC(NC(=O)Cc1ccc(OC(C)(C)C(=O)NS(C)(=O)=O)cc1)c1ccccc1OC (stereo not drawn) [Compound 67, N-[methylsulfonyl]-2-[4-[1-(1-(2-(methoxy)phenyl)pentyl)aminocarbonylmethyl]phenoxy]-2-methylpropanamide]
< 10 | < 10 | 37 | CCCCC(NC(=O)Cc1ccc(OC(C)(C)C(=O)O)cc1)c1ccccc1OCC(C)C (stereo not drawn) [Compound 68, 2-[4-[1-(1-(2-(isobutyloxy)phenyl)pentyl)aminocarbonylmethyl]phenoxy]-2-methylpropanoic acid]
< 10 | < 10 | 13 | CCCCC(NC(=O)Cc1ccc(OCc2nnn[nH]2)cc1)c1ccccc1N1CCCCC1 (stereo not drawn) [Compound 70, 2-(4-((1H-tetrazol-5-yl)methoxy)phenyl)-N-[1-(1-(2-(1-piperidinyl)phenyl)pentyl)]acetamide]
< 10 | < 10 | 42 | CCCCC(NC(=O)Cc1ccc(OC(C)(C)C(=O)O)c(OC)c1)c1ccccc1N1CCCCC1 (stereo not drawn) [Compound 73, 2-[2-methoxy-4-[1-(1-(2-(1-piperidinyl)phenyl)pentyl)aminocarbonylmethyl]phenoxy]-2-methylpropanoic acid]
